This passage reports IC50 results from BindingDB's records for doi:10.1016/j.bmcl.2014.06.076 (Genentech, 2014).

pIC50: −log10 of the molar value.

The assay has as its target L-lactate dehydrogenase A chain (Homo sapiens, UniProt P00338). As to the kind of experiment: Inhibition of human recombinant carboxy-terminal His-tagged LDHA by UV endpoint assay.

The term pIC50 denotes the IC50 on a negative log10 scale, so that one unit is a factor of ten. `N#Cc1ccccc1SC1=C(O)CC(c2c(Cl)cccc2Cl)CC1=O` (centres undefined): the pIC50 is < 4.00.

For `N#Cc1ccccc1SC1=C(O)CC(c2c(Cl)cccc2Br)CC1=O` (centres undefined), the negative logarithm of the IC50 (pIC50) is < 4.00.

On to `O=C1CC(c2ccccc2Cl)CC(O)=C1Sc1ccccc1Cl` (centres undefined), for which the pIC50 was < 4.00.

As for `O=C1CC(c2cccc(Cl)c2)CC(O)=C1Sc1ccccc1Cl` (centres undefined), the negative-log IC50 (pIC50) was < 4.00.

For the compound `O=C1CC(c2ccc(Cl)cc2)CC(O)=C1Sc1ccccc1Cl` (centres undefined), the pIC50 is < 4.00.

With `COc1ccc(C2CC(=O)C(Sc3ccccc3Cl)=C(O)C2)cc1` (centres undefined), the negative logarithm of the IC50 (pIC50) is < 4.00.

On to `O=C1CC(c2c(F)cccc2Cl)CC(O)=C1Sc1ccccc1Cl` (centres undefined), for which the negative-log IC50 (pIC50) was < 4.00.

`O=C1CC(c2c(Cl)cccc2Br)CC(O)=C1Sc1ccccc1Cl` (centres undefined): the pIC50 was < 4.00.

In the case of `O=C1CC(c2c(Cl)cccc2C(F)(F)F)CC(O)=C1Sc1ccccc1Cl` (centres undefined), the negative-log IC50 (pIC50) is < 4.00.

For the compound `O=C1CC(c2c(F)cccc2F)CC(O)=C1Sc1ccccc1Cl` (centres undefined), the pIC50 is < 4.00.

Take `Cc1cc(C)c(SC2=C(O)CC(c3ccccc3)CC2=O)nc1C#N` (centres undefined): the negative logarithm of the IC50 (pIC50) was 5.25.

In the case of `O=C1CC(c2ccccc2)CC(O)=C1Sc1ncc[nH]1` (centres undefined), the negative-log IC50 (pIC50) is 6.06.

`CSc1nnc(SC2=C(O)CC(c3ccccc3)CC2=O)s1` (centres undefined): the pIC50 is 5.13.

Regarding `Cc1ccc2nc(SC3=C(O)CC(c4ccccc4)CC3=O)[nH]c2c1` (centres undefined), the negative logarithm of the IC50 (pIC50) was 5.68.

Regarding `O=C1CC(c2c(Cl)ccc(Br)c2Cl)CC(O)=C1Sc1ccccc1Cl` (centres undefined), the pIC50 is < 4.00.

`O=C1CC(c2c(Br)cccc2Br)CC(O)=C1Sc1ccccc1Cl` (centres undefined): the pIC50 is < 4.00.

Turning to `Cc1cccc(C)c1C1CC(=O)C(Sc2ccccc2Cl)=C(O)C1` (centres undefined), the pIC50 was < 4.00.

Take `O=C1CC(c2c(C(F)(F)F)cccc2C(F)(F)F)CC(O)=C1Sc1ccccc1Cl` (centres undefined): the negative logarithm of the IC50 (pIC50) was < 4.00.

With `N#Cc1ccccc1SC1=C(O)CC(c2ccccc2Cl)CC1=O` (centres undefined), the pIC50 was < 4.00.

For the compound `N#Cc1ccccc1SC1=C(O)CC(c2cccc(Cl)c2)CC1=O` (centres undefined), the negative-log IC50 (pIC50) is < 4.00.

Consider `N#Cc1ccccc1SC1=C(O)CC(c2ccc(Cl)cc2)CC1=O` (centres undefined), for which the negative-log IC50 (pIC50) is < 4.00.

`N#Cc1ccccc1SC1=C(O)CC(c2c(Cl)cccc2C(F)(F)F)CC1=O` (centres undefined): the pIC50 was < 4.00.

For the compound `Cc1cccc(C)c1C1CC(=O)C(Sc2ccccc2C#N)=C(O)C1` (centres undefined), the pIC50 was < 4.00.

With `N#Cc1ccccc1SC1=C(O)CC(c2c(Br)cccc2Br)CC1=O` (centres undefined), the pIC50 is < 4.00.
